# According to US6696249B1, “Method for screening for inhibitors and activators of type III secretion machinery in gram-negative bacteria” (priority 1998, dated 2004):
# Columns and labels:
# [1] = tested on: Secretion of IpaB and IpaC; conditions: Parsot et al, 1995; cited from earlier work
# [2] = tested on: virA-lacZ fusion; assay type: cell-based, Shigella flexneri
# Experimental: (§1) All Shigella flexneri strains identified in Table I are derivatives of the wild-type strain M90T (Sansonetti et al., 1982). Bacteria were grown in Luria-Bertani (LB) medium or tryptic soy (TCS) broth. Antibiotics were used at the following concentrations: ampicillin, 100 μg/ml; kanamycin, 30 μg/ml; and streptomycin, 100 μg/ml. Congo red (SERVA, Heidelberg, Germany) was used to induce secretion by bacteria growing in LB medium.
# Secretion of IpaB and IpaC is enhanced when bacteria grow in the presence of Congo red (Parsot et al, 1995). To investigate the effect of Congo red on virA transcription, we assayed the β-galactosidase activity in strain SF1001 (virA-lacZ ipaD^+) after growth in the presence of various concentrations of Congo red.
# (§2) To investigate kinetics of activation of the virA promoter, Congo red (100 μg/ml) was added to the growth medium during the exponential phase of growth of derivatives of the wild-type and mxiD strains carrying the virA-lacZ fusion. Samples were then collected at 5 min intervals and assayed for β-galactosidase activity.
# (§3) The β-galactosidase activity present in bacteria growing in laboratory media was assayed by using the substrate o-nitro-phenyl-β-D-galactoside (ONPG) as described (Platt et al, 1972). The β-galactosidase activity present in intracellular bacteria was assayed by using the substrate 4-methyl-umbelliferyl-β-D-galactoside (MUG) as described (Klarsfeld et al., 1994). Fluorescence was measured by using a Dynatec apparatus, with 365 nm excitation and 450 nm emission wavelengths. Activities were computed as fluorescence units per hour per bacterium; four fluorescence units were equivalent to one Miller unit and all results are presented in Miller units.
# [3] = tested on: ipaH7.8-lacZ fusion; test: ipaH7.8-lacZ transcriptional fusion, β-galactosidase activity in vitro; assay type: cell-based, Shigella flexneri; conditions: ipaD+ strain
# [4] = tested on: ipaH9.8-, ipaH7.8-, ipaH4.5-, and ipaH1.4-lacZ fusions; test: ipaH-lacZ fusions taken together, β-galactosidase activity in vitro; assay type: cell-based, Shigella flexneri; conditions: 100 μg/ml of Congo red
# [5] = tested on: ipaH1.4-lacZ fusion; test: ipaH1.4-lacZ transcriptional fusion, β-galactosidase activity in vitro; assay type: cell-based, Shigella flexneri; conditions: ipaD+ strain
# [6] = tested on: virA-lacZ mxiD; test: virA-lacZ transcriptional fusion in mxiD (secretion deficient) strain SF1012, β-galactosidase activity in vitro; assay type: cell-based, Shigella flexneri
# Experimental: as §1
# To determine whether regulation of virA transcription was dependent on the type III secretion machinery, we compared the β-galactosidase activities produced by the virA-lacZ fusion in derivatives of wild-type (SF1001) and mxiD (SF1012) strains during growth in the presence of Congo red and we compared the production of VirA in ipaD and mxiD ipaD strains.
# as §2, §3
# [7] = tested on: icsB-, ipaA-, ipgD-, and mxiD-lacZ fusions; test: entry region lacZ fusions taken together, transcription in vitro; assay type: cell-based, Shigella flexneri; conditions: Congo red in the growth medium
# [8] = tested on: ipaA-lacZ fusion; test: ipaA-lacZ transcriptional fusion, β-galactosidase activity in vitro; assay type: cell-based, Shigella flexneri
# [9] = tested on: mxiD-lacZ fusion; test: mxiD-lacZ transcriptional fusion, β-galactosidase activity in vitro; assay type: cell-based, Shigella flexneri
# [10] = tested on: ipgD-lacZ fusion; test: ipgD-lacZ transcriptional fusion, β-galactosidase activity in vitro; assay type: cell-based, Shigella flexneri
# [11] = tested on: icsB-lacZ fusion; test: icsB-lacZ transcriptional fusion, β-galactosidase activity in vitro; assay type: cell-based, Shigella flexneri
# [12] = tested on: ipaH4.5-lacZ fusion; test: ipaH4.5-lacZ transcriptional fusion, β-galactosidase activity in vitro; assay type: cell-based, Shigella flexneri; conditions: ipaD+ strain
# [13] = tested on: ipaH9.8-lacZ fusion; test: ipaH9.8-lacZ transcriptional fusion, β-galactosidase activity in vitro; assay type: cell-based, Shigella flexneri; conditions: ipaD+ strain
# [14] = ipaD+ strain grown in presence of Congo red
smiles,measurement,setting,value
Nc1c(/N=N/c2ccc(-c3ccc(/N=N/c4cc(S(=O)(=O)O)c5ccccc5c4N)cc3)cc2)cc(S(=O)(=O)O)c2ccccc12 [Congo red],Secretion of IpaB and IpaC when bacteria grow in the presence of Congo red,[1],enhanced
same,Concentration of Congo red at which virA-lacZ transcription reaches a plateau,[2],about 100 μg/ml
same,Transcription of the virA-lacZ fusion at low dye concentrations,"[2]; SF1001, concentrations of dye up to 20 μg/ml",low
same,Ratio li: activity with Congo red versus without Congo red,"[2]; virA-lacZ, ipaD+ strain",17
same,"β-galactosidase activity, ipaD+ + CR","[2]; virA-lacZ, ipaD+ strain grown in presence of 100 μg/ml Congo red, mean of at least three experiments",280 Miller units
same,Time after addition of the dye at which an increase in β-galactosidase specific activity was detected,"[2]; wild-type derivative, Congo red 100 μg/ml added in exponential phase, samples at 5 min intervals",10 min
same,Ratio li: activity with Congo red versus without Congo red,[3],12
same,"β-galactosidase activity, ipaD+ + CR",[3]; 100 μg/ml Congo red,235 Miller units
same,Times more β-galactosidase activity after growth with Congo red,[4],3-12 times
same,Ratio li: activity with Congo red versus without Congo red,[5],5.1
same,"β-galactosidase activity, ipaD+ + CR",[5]; 100 μg/ml Congo red,270 Miller units
same,Transcriptional activation of the virA-lacZ fusion after addition of the dye,"[6]; mxiD mutant derivative, Congo red 100 μg/ml added in exponential phase",no transcriptional activation
same,Increase in β-galactosidase activity on growth with Congo red,"[6]; mxiD strain carrying virA-lacZ, Congo red in growth medium",did not lead to an increase
same,Ratio li: activity with Congo red versus without Congo red,[6]; virA-lacZ mxiD strain,1.1
same,"β-galactosidase activity, ipaD+ + CR",[6]; virA-lacZ mxiD strain grown in presence of Congo red,18 Miller units
same,Effect of Congo red in growth medium on transcription,[7],not affected
same,Ratio li: activity with Congo red versus without Congo red,[8]; ipaD+ strain,0.8
same,"β-galactosidase activity, ipaD+ + CR",[8]; [14],390 Miller units
same,Ratio li: activity with Congo red versus without Congo red,[9]; ipaD+ strain,1.2
same,"β-galactosidase activity, ipaD+ + CR",[9]; [14],320 Miller units
same,Ratio li: activity with Congo red versus without Congo red,[10]; ipaD+ strain,1.1
same,"β-galactosidase activity, ipaD+ + CR",[10]; [14],475 Miller units
same,Ratio li: activity with Congo red versus without Congo red,[11]; ipaD+ strain,1.0
same,"β-galactosidase activity, ipaD+ + CR",[11]; [14],285 Miller units
same,Ratio li: activity with Congo red versus without Congo red,[12],3.5
same,"β-galactosidase activity, ipaD+ + CR",[12]; 100 μg/ml Congo red,110 Miller units
same,Ratio li: activity with Congo red versus without Congo red,[13],12
same,"β-galactosidase activity, ipaD+ + CR",[13]; 100 μg/ml Congo red,325 Miller units
